Laboratory results as given in US7727736B2, “Soluble phospholipids for use in clotting factor assays” (The University of North Carolina at Chapel Hill, priority 2003, dated 2010).

What was measured:
FXa [1] = biological target: T1, FXa (Homo sapiens, UniProt P00742); parameters: Human prothrombin and factor Xa; purchased Hematologic Technologies Inc. (factor Xa); factor Va from human plasma, in house; settings: Nesheim et al. (1979); cited from earlier work
FXa [2] = biological target: T1, FXa; assay: Influence of DAPA on FXa activity in prothrombin activation; assay type: biochemical; parameters: Human prothrombin and factor Xa; purchased Hematologic Technologies Inc. (factor Xa); factor Va from human plasma, in house; settings: in the presence of C6PS, concentration of DAPA used herein
Protocol: Despite this, it has been shown that it provides rates of prothrombin activation in the presence of PS/PC membranes equivalent to those detected by activity measurements (Wu, et al. (2002) supra; Weinreb, et al. (2003) supra). To test whether DAPA influenced the activity of FXa in the presence of C6PS, the expected DAPA fluorescence was calculated based on the rate of appearance of thrombin and MzIIa, as detected by synthetic substrate assay as recorded in FIG. 6A. This calculation has been described (Wu, et al. (2002) supra) and its results, as applied to the data herein, are shown in the inset to FIG. 6A (filled circles) along with an experimental time-course of DAPA fluorescence change (open diamonds) reflecting prothrombin activation. Similar results were obtained at the other prothrombin concentrations examined.

T1 sequence (P00742 41-179 limits assumed): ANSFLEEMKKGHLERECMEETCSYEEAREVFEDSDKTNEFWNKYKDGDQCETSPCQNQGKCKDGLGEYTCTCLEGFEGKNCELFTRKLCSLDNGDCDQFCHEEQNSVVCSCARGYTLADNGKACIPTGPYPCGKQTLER
T1 sequence (P00742 235-488 limits assumed): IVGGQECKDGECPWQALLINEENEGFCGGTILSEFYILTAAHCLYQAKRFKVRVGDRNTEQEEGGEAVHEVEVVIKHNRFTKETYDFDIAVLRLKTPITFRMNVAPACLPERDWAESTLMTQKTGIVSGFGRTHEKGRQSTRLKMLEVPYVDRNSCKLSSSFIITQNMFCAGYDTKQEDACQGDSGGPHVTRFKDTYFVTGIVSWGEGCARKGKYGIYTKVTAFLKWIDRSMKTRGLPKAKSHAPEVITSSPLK
T1 sequence (P12259 29-737 partner limits assumed): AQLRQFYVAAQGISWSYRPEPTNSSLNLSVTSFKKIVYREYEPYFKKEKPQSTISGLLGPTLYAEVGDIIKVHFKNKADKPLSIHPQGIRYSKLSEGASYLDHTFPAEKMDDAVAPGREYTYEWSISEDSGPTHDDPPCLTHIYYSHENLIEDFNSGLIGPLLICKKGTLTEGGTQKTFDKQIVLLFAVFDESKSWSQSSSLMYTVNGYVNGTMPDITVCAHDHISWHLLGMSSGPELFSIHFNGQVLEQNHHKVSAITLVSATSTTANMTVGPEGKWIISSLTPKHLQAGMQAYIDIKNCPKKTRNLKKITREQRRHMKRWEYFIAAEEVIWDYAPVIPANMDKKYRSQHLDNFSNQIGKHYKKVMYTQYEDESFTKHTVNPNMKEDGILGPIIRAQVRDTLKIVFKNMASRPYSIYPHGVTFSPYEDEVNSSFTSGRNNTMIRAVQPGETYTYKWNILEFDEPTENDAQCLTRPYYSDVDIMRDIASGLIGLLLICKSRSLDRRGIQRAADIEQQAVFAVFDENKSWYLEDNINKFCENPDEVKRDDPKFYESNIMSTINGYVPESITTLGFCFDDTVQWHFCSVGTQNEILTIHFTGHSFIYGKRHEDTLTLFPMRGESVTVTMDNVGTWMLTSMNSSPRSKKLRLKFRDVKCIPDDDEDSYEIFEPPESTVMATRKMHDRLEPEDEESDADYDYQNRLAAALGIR
T1 sequence (P12259 1574-2224 partner limits assumed): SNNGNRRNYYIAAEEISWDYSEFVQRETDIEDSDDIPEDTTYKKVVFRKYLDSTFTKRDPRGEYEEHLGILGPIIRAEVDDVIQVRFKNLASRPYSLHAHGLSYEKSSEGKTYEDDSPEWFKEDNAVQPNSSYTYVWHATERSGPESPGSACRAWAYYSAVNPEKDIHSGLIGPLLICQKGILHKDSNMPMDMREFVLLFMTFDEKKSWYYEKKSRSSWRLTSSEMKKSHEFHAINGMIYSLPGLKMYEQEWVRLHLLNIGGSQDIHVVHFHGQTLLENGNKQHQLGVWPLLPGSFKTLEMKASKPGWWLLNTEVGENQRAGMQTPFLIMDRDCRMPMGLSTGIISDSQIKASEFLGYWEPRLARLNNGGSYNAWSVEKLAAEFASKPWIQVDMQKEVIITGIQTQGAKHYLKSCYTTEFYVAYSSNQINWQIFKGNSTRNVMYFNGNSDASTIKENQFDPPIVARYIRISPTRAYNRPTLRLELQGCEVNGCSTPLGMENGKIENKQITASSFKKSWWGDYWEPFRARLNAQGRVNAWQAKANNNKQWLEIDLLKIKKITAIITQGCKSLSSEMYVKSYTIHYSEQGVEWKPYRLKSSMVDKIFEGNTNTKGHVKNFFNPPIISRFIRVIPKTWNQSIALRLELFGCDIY

CCC1CCN(C(=O)C(CCCN=C(N)N)NS(=O)(=O)c2cccc3c(N(C)C)cccc23)CC1 (centres unmarked) [DAPA, dansylarginine-N-(3-ethyl-1,5-pentanediyl) amide]
inhibition of FXa by DAPA (FXa [1]): weak competitive inhibitor | influence of DAPA on FXa activity (FXa [2]): does not influence FXa activity to a measurable extent
